# What was measured:
# Type in all cases: biochemical
# ERK5 = ERK5 (Homo sapiens, UniProt Q13164); experiment: Kinase profiling ERK5; conditions: 100 micromolar inhibitor concentration, 100 is no change; for remaining activity at 100 µM: read-out: residual kinase activity, ERK5
# Source text: (§1) Any value less that 25 is considered to be highly significant inhibition.
# TAO1 = molecular target: T1, TAO1 (Homo sapiens, UniProt Q7L7X3); experiment: Kinase profiling TAO1; conditions: 100 micromolar inhibitor concentration, 100 is no change; for remaining activity at 100 µM: read-out: residual kinase activity, TAO1
# T1 sequence (Q7L7X3 1-1001): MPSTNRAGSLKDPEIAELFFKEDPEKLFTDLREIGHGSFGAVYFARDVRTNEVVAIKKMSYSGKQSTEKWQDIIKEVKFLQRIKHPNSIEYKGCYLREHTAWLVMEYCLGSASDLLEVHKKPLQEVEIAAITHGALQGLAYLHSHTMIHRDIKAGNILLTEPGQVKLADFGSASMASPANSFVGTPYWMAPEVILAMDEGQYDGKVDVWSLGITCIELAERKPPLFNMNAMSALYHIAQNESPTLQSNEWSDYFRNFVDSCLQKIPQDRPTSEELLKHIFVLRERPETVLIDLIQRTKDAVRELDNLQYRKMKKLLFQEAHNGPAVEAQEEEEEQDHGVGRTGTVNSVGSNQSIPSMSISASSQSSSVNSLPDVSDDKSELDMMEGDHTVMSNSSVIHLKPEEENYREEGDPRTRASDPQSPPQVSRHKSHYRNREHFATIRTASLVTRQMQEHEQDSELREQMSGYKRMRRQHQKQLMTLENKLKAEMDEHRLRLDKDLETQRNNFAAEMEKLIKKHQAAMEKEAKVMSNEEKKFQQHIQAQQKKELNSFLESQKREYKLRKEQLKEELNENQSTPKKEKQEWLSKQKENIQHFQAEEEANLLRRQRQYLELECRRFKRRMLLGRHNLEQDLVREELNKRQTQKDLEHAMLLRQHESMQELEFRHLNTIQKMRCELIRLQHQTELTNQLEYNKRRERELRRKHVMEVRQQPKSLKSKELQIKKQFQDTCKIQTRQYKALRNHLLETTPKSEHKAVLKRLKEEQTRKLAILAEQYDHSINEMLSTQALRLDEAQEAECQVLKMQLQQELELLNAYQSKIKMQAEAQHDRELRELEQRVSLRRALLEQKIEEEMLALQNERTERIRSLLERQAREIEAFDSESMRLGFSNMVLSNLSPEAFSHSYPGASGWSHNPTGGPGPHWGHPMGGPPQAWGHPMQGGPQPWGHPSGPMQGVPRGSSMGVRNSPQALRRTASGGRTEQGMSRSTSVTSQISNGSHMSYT
# Source text: as §1
# Aurora A = molecular target: T2, Aurora A (Homo sapiens, UniProt O14965); experiment: Kinase profiling Aurora A; conditions: 100 micromolar inhibitor concentration, 100 is no change; for remaining activity at 100 µM: read-out: residual kinase activity, Aurora A
# T2 sequence (O14965 1-403): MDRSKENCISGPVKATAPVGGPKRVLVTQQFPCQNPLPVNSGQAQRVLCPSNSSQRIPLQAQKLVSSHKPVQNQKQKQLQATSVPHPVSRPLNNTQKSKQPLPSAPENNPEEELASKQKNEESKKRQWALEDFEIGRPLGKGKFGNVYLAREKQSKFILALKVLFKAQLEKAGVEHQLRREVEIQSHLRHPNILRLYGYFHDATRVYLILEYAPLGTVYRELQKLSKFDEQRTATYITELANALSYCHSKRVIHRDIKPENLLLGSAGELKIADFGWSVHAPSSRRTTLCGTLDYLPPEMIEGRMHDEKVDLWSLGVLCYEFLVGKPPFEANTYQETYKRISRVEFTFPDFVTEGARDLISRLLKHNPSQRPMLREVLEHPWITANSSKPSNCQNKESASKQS
# Source text: as §1
# FGF-R1 = FGF-R1 (Homo sapiens, UniProt P11362); experiment: Kinase profiling FGF-R1; conditions: 100 micromolar inhibitor concentration, 100 is no change; for remaining activity at 100 µM: read-out: residual kinase activity, FGF-R1
# Source text: as §1
# BRSK2 = molecular target: T3, BRSK2 (Homo sapiens, UniProt Q8IWQ3); experiment: Kinase profiling BRSK2; conditions: 100 micromolar inhibitor concentration, 100 is no change; for remaining activity at 100 µM: read-out: residual kinase activity, BRSK2
# T3 sequence (Q8IWQ3 1-736): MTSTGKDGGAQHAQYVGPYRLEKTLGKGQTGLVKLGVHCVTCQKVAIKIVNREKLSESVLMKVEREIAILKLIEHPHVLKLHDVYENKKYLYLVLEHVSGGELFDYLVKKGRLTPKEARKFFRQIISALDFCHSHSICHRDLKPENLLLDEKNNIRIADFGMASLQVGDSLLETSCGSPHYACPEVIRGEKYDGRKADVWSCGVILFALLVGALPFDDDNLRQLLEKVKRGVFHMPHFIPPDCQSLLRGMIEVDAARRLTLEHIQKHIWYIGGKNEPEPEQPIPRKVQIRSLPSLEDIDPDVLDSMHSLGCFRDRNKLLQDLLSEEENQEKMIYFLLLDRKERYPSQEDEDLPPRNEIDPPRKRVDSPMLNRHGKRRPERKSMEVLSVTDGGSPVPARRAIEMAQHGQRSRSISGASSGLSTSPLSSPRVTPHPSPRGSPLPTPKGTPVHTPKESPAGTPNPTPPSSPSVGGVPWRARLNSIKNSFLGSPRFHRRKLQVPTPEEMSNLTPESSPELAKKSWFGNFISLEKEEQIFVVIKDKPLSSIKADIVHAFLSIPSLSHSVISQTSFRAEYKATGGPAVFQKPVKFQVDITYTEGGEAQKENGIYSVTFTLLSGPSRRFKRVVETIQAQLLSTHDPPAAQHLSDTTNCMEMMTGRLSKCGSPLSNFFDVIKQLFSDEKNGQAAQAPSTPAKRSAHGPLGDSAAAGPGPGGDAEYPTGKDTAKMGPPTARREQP
# Source text: as §1
# MARK2 = MARK2 (Homo sapiens, UniProt Q7KZI7); experiment: Kinase profiling MARK2; conditions: 100 micromolar inhibitor concentration, 100 is no change; for remaining activity at 100 µM: read-out: residual kinase activity, MARK2
# Source text: as §1
# MAPKAP-K2 = MAPKAP-K2 (Homo sapiens, UniProt P49137); experiment: Kinase profiling MAPKAP-K2; conditions: 100 micromolar inhibitor concentration, 100 is no change; for remaining activity at 100 µM: read-out: residual kinase activity, MAPKAP-K2
# Source text: as §1
# SIK2 = SIK2 (Homo sapiens, UniProt Q9H0K1); experiment: Kinase profiling SIK2; conditions: 100 micromolar inhibitor concentration, 100 is no change; for remaining activity at 100 µM: read-out: residual kinase activity, SIK2
# Source text: as §1
# TIE2 = TIE2 (Homo sapiens, UniProt Q02763); experiment: Kinase profiling TIE2; conditions: 100 micromolar inhibitor concentration, 100 is no change; for remaining activity at 100 µM: read-out: residual kinase activity, TIE2
# Source text: as §1
# MINK1 = MINK1 (Homo sapiens, UniProt Q8N4C8); experiment: Kinase profiling MINK1; conditions: 100 micromolar inhibitor concentration, 100 is no change; for remaining activity at 100 µM: read-out: residual kinase activity, MINK1
# Source text: as §1
# Sequence of FGF-R1 (P11362 22-822, species assumed): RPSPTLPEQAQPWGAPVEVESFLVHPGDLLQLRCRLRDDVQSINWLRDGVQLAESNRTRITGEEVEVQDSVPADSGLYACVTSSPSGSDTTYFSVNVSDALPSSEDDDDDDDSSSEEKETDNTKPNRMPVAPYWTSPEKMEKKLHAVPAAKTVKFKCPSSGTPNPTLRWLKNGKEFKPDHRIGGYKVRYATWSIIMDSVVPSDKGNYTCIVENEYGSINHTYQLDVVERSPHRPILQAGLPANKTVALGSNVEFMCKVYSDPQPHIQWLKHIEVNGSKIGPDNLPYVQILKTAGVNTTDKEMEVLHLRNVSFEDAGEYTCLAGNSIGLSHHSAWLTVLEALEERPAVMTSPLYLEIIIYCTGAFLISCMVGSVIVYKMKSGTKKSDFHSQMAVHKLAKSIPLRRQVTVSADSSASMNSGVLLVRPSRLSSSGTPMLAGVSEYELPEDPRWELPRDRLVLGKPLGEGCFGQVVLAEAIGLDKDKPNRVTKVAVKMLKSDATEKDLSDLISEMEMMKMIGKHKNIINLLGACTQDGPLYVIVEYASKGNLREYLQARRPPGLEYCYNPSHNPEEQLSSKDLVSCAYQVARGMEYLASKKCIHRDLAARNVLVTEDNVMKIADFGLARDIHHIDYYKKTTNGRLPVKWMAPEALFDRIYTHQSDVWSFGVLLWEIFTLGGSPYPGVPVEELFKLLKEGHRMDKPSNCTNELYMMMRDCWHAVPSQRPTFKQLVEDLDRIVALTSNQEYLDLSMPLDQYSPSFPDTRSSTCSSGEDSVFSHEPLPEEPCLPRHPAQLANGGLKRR
# Sequence of ERK5 (Q13164 whole entry, species assumed): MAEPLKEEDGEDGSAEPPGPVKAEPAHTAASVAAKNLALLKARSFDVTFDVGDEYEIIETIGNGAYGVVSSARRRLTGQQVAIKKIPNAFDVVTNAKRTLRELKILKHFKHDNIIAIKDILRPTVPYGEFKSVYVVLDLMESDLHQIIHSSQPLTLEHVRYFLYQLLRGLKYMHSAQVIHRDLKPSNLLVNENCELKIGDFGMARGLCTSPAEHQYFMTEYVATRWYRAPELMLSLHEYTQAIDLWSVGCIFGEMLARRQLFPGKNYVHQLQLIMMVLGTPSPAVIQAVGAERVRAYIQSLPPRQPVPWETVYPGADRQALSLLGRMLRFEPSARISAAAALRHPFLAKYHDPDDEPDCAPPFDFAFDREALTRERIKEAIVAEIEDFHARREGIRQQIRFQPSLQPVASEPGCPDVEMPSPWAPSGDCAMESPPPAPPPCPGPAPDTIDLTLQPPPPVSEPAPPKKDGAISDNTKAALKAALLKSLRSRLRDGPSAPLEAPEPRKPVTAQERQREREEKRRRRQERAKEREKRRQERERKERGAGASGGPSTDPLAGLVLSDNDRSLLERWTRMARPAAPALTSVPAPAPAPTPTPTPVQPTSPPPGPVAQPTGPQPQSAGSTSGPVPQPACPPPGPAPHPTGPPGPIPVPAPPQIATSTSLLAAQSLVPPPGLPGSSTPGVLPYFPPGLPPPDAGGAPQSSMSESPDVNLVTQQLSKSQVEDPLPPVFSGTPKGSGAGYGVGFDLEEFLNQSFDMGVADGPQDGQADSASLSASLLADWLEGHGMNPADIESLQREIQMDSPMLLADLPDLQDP
# Sequence of MINK1 (Q8N4C8 whole entry, species assumed): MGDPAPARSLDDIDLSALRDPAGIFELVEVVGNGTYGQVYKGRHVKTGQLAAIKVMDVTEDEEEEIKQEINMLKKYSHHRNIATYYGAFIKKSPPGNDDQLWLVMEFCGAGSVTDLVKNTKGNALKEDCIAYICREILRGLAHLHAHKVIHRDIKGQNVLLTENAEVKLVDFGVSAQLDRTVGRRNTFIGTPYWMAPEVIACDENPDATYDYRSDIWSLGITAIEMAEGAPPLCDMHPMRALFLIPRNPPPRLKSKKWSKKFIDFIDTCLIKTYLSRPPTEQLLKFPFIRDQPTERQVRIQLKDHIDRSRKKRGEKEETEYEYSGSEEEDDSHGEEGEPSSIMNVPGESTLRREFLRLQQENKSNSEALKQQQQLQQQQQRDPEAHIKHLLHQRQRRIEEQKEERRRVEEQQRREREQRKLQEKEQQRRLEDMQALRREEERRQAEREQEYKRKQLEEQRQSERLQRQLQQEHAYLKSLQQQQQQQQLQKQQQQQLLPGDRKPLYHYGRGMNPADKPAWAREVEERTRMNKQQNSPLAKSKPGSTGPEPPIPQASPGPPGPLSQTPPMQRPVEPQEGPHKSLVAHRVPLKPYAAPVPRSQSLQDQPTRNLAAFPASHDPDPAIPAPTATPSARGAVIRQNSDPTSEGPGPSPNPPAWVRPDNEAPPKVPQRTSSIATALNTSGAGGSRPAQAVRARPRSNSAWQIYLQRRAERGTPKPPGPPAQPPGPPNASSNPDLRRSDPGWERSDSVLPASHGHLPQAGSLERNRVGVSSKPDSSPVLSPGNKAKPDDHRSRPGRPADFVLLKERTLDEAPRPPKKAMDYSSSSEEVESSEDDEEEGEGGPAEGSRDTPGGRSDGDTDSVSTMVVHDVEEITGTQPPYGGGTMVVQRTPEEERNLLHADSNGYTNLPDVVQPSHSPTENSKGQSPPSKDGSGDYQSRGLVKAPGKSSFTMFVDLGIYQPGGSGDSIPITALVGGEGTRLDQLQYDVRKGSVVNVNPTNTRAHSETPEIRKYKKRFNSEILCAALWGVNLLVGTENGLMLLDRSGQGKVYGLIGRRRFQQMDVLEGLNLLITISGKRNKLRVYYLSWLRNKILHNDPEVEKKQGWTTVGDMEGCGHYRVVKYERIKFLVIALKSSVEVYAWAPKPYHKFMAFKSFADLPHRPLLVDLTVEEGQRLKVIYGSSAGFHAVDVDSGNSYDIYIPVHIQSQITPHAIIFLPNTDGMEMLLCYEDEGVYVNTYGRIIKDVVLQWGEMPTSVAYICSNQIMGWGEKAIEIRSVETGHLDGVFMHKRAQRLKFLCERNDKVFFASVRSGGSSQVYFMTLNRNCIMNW
# Sequence of SIK2 (Q9H0K1 whole entry, species assumed): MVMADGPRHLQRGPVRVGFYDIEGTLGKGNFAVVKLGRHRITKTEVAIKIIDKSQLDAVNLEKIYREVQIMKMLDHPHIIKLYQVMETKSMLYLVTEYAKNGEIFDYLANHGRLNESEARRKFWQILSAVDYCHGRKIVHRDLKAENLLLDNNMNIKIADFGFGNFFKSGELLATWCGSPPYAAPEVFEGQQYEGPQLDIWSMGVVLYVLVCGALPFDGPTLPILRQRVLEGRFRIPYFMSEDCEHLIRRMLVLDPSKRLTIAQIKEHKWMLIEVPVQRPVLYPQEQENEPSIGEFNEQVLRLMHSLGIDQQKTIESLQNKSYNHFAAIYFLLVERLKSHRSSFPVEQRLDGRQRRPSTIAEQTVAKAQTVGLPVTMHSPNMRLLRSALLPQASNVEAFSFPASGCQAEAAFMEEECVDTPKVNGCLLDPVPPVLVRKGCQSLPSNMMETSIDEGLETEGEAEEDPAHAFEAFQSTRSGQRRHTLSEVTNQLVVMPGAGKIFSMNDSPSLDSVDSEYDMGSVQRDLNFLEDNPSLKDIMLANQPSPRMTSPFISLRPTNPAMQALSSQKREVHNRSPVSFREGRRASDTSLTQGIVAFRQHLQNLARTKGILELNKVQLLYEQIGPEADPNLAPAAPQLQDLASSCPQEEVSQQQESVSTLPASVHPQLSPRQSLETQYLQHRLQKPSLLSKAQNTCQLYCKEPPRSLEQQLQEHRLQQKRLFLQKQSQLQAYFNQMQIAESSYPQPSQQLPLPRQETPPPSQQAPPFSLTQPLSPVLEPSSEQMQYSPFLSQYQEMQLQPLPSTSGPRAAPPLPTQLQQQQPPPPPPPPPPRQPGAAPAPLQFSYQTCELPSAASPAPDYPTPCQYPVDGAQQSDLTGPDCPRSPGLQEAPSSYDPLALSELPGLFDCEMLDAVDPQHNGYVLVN
# Sequence of MARK2 (Q7KZI7 whole entry, species assumed): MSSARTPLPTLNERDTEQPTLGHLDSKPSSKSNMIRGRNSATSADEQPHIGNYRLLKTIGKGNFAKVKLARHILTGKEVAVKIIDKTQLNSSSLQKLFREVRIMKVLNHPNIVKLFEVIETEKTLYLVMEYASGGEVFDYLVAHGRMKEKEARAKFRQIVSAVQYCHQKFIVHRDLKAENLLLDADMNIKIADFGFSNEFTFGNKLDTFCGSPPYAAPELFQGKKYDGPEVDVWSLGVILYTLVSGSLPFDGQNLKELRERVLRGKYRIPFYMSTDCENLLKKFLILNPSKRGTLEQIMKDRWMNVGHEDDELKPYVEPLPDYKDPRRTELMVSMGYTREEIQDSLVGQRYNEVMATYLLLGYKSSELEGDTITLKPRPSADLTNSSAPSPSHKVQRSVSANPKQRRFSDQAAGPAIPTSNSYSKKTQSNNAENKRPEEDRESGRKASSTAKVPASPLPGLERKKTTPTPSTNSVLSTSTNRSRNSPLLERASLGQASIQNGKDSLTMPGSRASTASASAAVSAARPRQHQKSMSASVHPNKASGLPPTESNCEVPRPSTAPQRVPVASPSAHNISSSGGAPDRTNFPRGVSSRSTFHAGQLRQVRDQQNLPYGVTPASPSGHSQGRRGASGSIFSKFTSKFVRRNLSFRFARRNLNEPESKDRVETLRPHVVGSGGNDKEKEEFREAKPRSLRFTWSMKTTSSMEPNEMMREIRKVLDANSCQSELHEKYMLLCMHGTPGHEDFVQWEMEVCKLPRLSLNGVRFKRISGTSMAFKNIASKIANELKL
# Sequence of MAPKAP-K2 (P49137 whole entry, species assumed): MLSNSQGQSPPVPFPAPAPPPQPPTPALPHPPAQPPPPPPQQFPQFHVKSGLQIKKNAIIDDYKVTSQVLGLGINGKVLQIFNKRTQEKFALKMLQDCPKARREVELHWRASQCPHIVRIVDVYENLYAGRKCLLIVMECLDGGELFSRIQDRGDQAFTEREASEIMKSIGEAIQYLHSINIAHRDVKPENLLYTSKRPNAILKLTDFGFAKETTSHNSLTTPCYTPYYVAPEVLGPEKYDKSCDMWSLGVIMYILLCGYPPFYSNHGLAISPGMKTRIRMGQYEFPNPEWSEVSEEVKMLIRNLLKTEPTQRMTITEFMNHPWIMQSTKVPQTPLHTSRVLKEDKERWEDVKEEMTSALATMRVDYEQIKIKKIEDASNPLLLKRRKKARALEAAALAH
Compound,"residual kinase activity, ERK5 (ERK5)","residual kinase activity, TAO1 (TAO1)","residual kinase activity, Aurora A (Aurora A)","residual kinase activity, FGF-R1 (FGF-R1)","residual kinase activity, BRSK2 (BRSK2)","residual kinase activity, MARK2 (MARK2)","residual kinase activity, MAPKAP-K2 (MAPKAP-K2)","residual kinase activity, SIK2 (SIK2)","residual kinase activity, TIE2 (TIE2)","residual kinase activity, MINK1 (MINK1)",remaining activity at 100 µM (ERK5) [%],remaining activity at 100 µM (TAO1) [%],remaining activity at 100 µM (Aurora A) [%],remaining activity at 100 µM (FGF-R1) [%],remaining activity at 100 µM (BRSK2) [%],remaining activity at 100 µM (MARK2) [%],remaining activity at 100 µM (MAPKAP-K2) [%],remaining activity at 100 µM (SIK2) [%],remaining activity at 100 µM (TIE2) [%],remaining activity at 100 µM (MINK1) [%]
O=C(Nc1nc2ccc(O)cc2s1)c1ccccn1 [Compound 03-12],53,74,95,16,79,90,43,77,76,48,,,,,,,,,,
O=C(Nc1nc2cc(O)ccc2s1)c1ccccn1 [Compound 03-13],51,80,93,81,80,84,98,96,106,31,,,,,,,,,,
COc1ccc2sc(NC(C)=O)nc2c1 [Compound 03-21],,,,,,,,,,,57,72,103,104,95,103,108,89,91,61
CC(=O)Nc1nc2ccccc2s1 [Compound 03-32],66,73,109,12,91,88,102,81,112,92,,,,,,,,,,
O=C(Nc1nc2cc(O)ccc2s1)c1cccnc1 [Compound 03-33],58,87,108,102,82,102,109,69,100,51,,,,,,,,,,
O=C(Nc1nc2ccc(O)cc2s1)c1ccccc1 [Compound 03-60],30,62,82,84,34,65,59,26,41,7,,,,,,,,,,
CC(=O)Nc1nc2cc(C(F)(F)F)ccc2s1 [Compound 03-73],,,,,,,,,,,67,88,96,109,98,99,114,91,92,77
CC(=O)Nc1nc2cc(C)ccc2s1 [Compound 03-76],62,76,109,106,79,97,105,71,95,63,,,,,,,,,,
CC(=O)Nc1nc2cc(F)ccc2s1 [Compound 03-77],,,,,,,,,,,38,69,100,103,77,79,106,64,112,65
